Legend:
Type in all cases: cell-based
[1] = test system: 293FT cells; experiment: Matador assay, Digitonin-induced death of transiently transfected 293FT cells
Description: The 293FT cells were transfected in a 24-well plate with various expression plasmids (500 ng/well) using calcium phosphate. Approximately, 18 hours post-transfection, the cells were either left untreated or treated with 30 μg/ml Digitonin to induce cell death, followed by the detection of luminescence as described under luciferase assays.
293FT cells were transfected with pLenti-CBGRluc construct in a […]. 72 hours post-transfection, cells were trypsinized and plated in 6-well plates. For induction of cell death, cells in some wells were treated with Digitonin (50 μg/mL final concentration). CBGRluc activity was determined by adding assay buffer (1 mM D-Luciferin, 25 mM glycylclycine, 15 mM potassium phosphate, 15 mM MgSO4, 4 mM EGTA, 2 mM ATP, and 1 mM DTT) in a well mode. The assay buffer with substrate was added at 1:1 (v/v) ratio.
The MLuc7 cDNA also carried M43L and M110L substitutions. […] The mammalian expression vectors encoding the non-secretory forms of the above luciferase cDNAs were transiently transfected into 293FT cells by calcium phosphate co-precipitation method. […] 6 wells were treated with Digitonin and 6 wells were left untreated. Luciferase activity was measured by addition of coelentrazine containing assay buffer directly to each well.
The indicated luciferase constructs in either retroviral or lentiviral vectors were transiently transfected into 293FT cells by calcium phosphate co-precipitation method. Approximately 18 hours post-transfection, cells were treated with Digitonin for 90 minutes or left untreated (control). […] Essentially a similar procedure was used with a construct encoding Lucia-Luc.
293FT cells were transiently transfected with the above construct or left untransfected. Approximately 18 hours post-transfection, cells were treated for 90 min with Digitonin (final concentration 30 μg/ml) or left untreated. After the 90 minute incubation, 200 μl supernatant was collected from each well in a 1.5 ml tubes. The tubes were spun down at 1500 RPM for 5 minutes.
We next examined if the Matador cytotoxicity assay developed by us is limited to only luciferase proteins or can be adapted to any other protein that is not endogenously expressed by the target cells. For this purpose, we transiently transfected 293FT cells by calcium phosphate co-precipitation method with an expression plasmid encoding enhanced green fluorescent protein (GFP) or HA-epitope tagged-mCherry. Approximately 24 post-transfection, the transfected cells were either left untreated or treated with Digitonin to induce cell death. The cells were collected in tubes and centrifuged at 2,000 rpm for 5 min. Cell supernatant was collected in a new set of tubes and cell pellet were washed with cold phosphate-buffered saline twice and lysed in lysis buffer containing 20 mM Tris-HCl, pH 8.0, 500 mM NaCl, 0.25% Triton X-100, 1 mM EDTA, 10 mM β-glycophosphate, 10 mMNaF, 1 mM DTT, 1× protease inhibitor mixture (Roche Molecular Biochemicals) at 4° C. for 30 min. After incubation, the mixture was pippetted five or six times to disperse the cells followed by centrifugation at 14,000 rpm at 4° C. for 10 min. The cell lysates were collected as whole cell extracts, and protein concentration was determined by using Bio-Rad protein assay reagent. 30 μl of cell supernatant or 30 μg of whole cell extracts were heated in the presence of SDS-PAGE sample buffer and loaded on 10% SDS-PAGE gel followed by transferring to nitrocellulose membranes. These membranes were incubated with primary antibodies against specified proteins in Tris-buffered-saline with Tween 20 followed by incubation with secondary antibody (IRDye 800CW conjugates of goat anti-rabbit IgG; Li-Cor) and development with Odyssey Infrared Imaging System CLx (Li-Cor Biosciences). The secondary antibody was used at a 1:10,000 dilution.

[2] = test system: primary leukemia blast cells (Chrt3); experiment: Matador assay on primary leukemia blast cells expressing GLuc; details: two additional primary leukemia samples; Digitonin; present tense
Description: To examine if this assay can be also used to measure death of primary cells, leukemic blasts were isolated from a de-identified leukemia patient using Ficoll-Hypaque gradient centrifugation and then transduced with pLenti-EF1a-Pac-T2A-Gluc-B07 (SEQ ID NO: 94) lentiviral vector to generate primary leukemia blast cells (Chrt3) expressing the non-secretory form of GLuc cDNA. Briefly, 1 million primary leukemic blasts were cultured in XVIVO medium in a 6-well plate in the presence of GLuc lentiviral supernatant and polybrene (5 μg/ml) and centrifuged at 2,800 rpm at 32° C. for 2 hours followed by incubation of cells at 37° C. for 24 hours in XVIVO medium. To measure the killing of Chrt3-GLuc cells, the transduced cells were plated at a density of 20,000 cells per well in 30 μl of medium in triplicate in a white 384 well plate and co-cultured with the effector cells for 4 hours at an E:T ratio of 0.125:1. Cell death was assayed by the single-step homogenous GLuc assay by injecting 0.5×CTZ assay buffer in well mode. […] Two additional primary leukemia samples are infected with GLuc encoding lentiviral vector and cell death is induced by treatment with Digitonin.

[3] = test system: RAJI cells; experiment: Matador assay, Digitonin-induced death of RAJI cells expressing luciferase reporters
Description: A similar experiment was conducted with K562, HEL-91-1-17 and RAJI cells stably expressing NLuc from pLENTI-NLuc-AcV5-Blasticidin-Pa08 vector (SEQ ID NO: 92). Cells plated in 30 μl of medium per well were either treated with 30 μl of PBS or 30 μl of PBS containing Digitonin (final concentration 30 μg/ml) for 1 hour at 37° C., in a 5% CO2 incubator. For measurement of NLuc activity, 0.5×CTZ assay buffer was added by automated injector directly to each well of the 384-well white plate containing cells in 60 μl of volume (30 μl of RPMI-10% FBS+30 μl of Digitonin) without prior cell lysis and plates were read for luminescence using BioTek synergy H4 plate reader in well mode.
(§1) Briefly, 20000 cells in 20 μl media were plated in each well of a 384 well plate followed by addition of 20 μl of Digitonin (final concentration 30 μg/ml) or media alone (20 μl) and incubated for 90 minutes.

[4] = test system: Nalm6 cells; experiment: Dual reporter Matador assay, Digitonin-induced death of Nalm6 cells; details: Nalm6 cells expressing both GLuc and FfLuc; Digitonin 30 μg/ml, 90 minutes
Description: as §1

[5] = test system: K562 cells; experiment: Matador assay, death of K562 reporter cells induced by Digitonin or lytic reagent

C[C@@H]1CC[C@@]2(OC1)O[C@H]1[C@@H](O)[C@H]3[C@@H]4CC[C@H]5C[C@@H](O[C@@H]6O[C@H](CO)[C@H](O[C@@H]7O[C@H](CO)[C@@H](O)[C@H](O[C@@H]8OC[C@@H](O)[C@H](O)[C@H]8O)[C@H]7O[C@@H]7O[C@H](CO)[C@H](O)[C@H](O[C@@H]8O[C@H](CO)[C@@H](O)[C@H](O)[C@H]8O)[C@H]7O)[C@H](O)[C@H]6O)[C@H](O)C[C@]5(C)[C@H]4CC[C@]3(C)[C@H]1[C@@H]2C [Digitonin]
luciferase activity ([1]; FfLuc construct, Digitonin 30 μg/ml, 90 min, supernatant): increase in luciferase activity
fluorescence in cell supernatant ([1]; GFP and mCherry-HA transfected, Digitonin): significant increase in fluorescence
GFP release in the supernatant fraction (Western blotting) ([1]; GFP transfected, Digitonin): increase in GFP release in the supernatant fraction
mCherry release in the supernatant fraction (Western blotting) ([1]; HA-mCherry transfected, Digitonin): increase in mCherry release in the supernatant fraction
LucPPe luciferase activity ([1]; LucPPe-146-1H2 transient transfection, Digitonin): increase in LucPPe luciferase activity
Luc activity ([1]; MYR-GGS-GLuc construct, Digitonin 30 μg/ml, 90 min, supernatant): increase in Luc activity
increase in alkaline phosphatase activity in the cell supernatants ([1]; constructs encoding human embryonal alkaline phosphatase lacking the secretory signal, Digitonin 90 min): greater than 3 fold
alkaline phosphatase activity ([1]; empty vector or plasmid encoding the secretory form of human embryonal alkaline phosphatase, Digitonin 90 min): little or no increase
CBGRluc activity ([1]; pLenti-CBGRluc transfected, Digitonin 50 μg/mL): increase in CBGRluc activity
luciferase activity in the cell-free supernatants ([1]; transfected with GLuc, NLuc, MLuc7, TLuc16, Paluc1, Htluc1, Loluc, RLuc, Lucia-Luc, Digitonin 90 minutes): increase in luciferase activity
luciferase activity ([1]; transfected with HtLuc, LoLuc, MLuc7, Digitonin): increase in luciferase activity
GLuc activity [2]: increase in GLuc activity
TLuc activity ([3]; RAJI cells expressing TurboLuc16, Digitonin 90 min): increase in TLuc activity
GLuc luciferase activity ([3]; RAJI cells stably expressing GLuc from MSCVhygro-GLuc-HA-G02, Digitonin): Essentially similar results
NLuc activity ([3]; RAJI cells stably expressing NLuc, Digitonin 30 μg/ml, 1 hour): increase in NLuc activity
FfLuc and GLuc activities ([3]; Raji cells expressing both GLuc and FfLuc, Digitonin 30 μg/ml, 90 minutes): increase in both FfLuc and GLuc activities
FfLuc and GLuc activities [4]: increase in both FfLuc and GLuc activities
MLuc7 activity ([5]; K562-MLuc7 (additional example), Digitonin 30 μg/ml, 1 cell/well to 10K cells/well): increase in MLuc7 activity
MLuc7 activity ([5]; K562-MLuc7, Digitonin 1 hour, 1 cell/well to 400K cells/well): increase in MLuc7 activity
NLuc luminescence in the supernatant ([5]; K562-NLuc, Digitonin 1 h, all three assay buffers): increase in luminescence
TLuc activity ([5]; K562 cells expressing TurboLuc16, Digitonin 90 min): increase in TLuc activity
FfLuc and GLuc activities ([5]; K562 cells expressing both GLuc and FfLuc, Digitonin 30 μg/ml, 90 minutes): increase in both FfLuc and GLuc activities
LucPPe-146-1H2 activity ([5]; K562 cells stably expressing LucPPe-146-1H2, Digitonin 30 μg/ml): increase in LucPPe-146-1H2 activity
NLuc activity ([5]; K562 cells stably expressing NLuc, Digitonin 30 μg/ml, 1 hour): increase in NLuc activity
Renilla Luc activity ([5]; K562 cells stably expressing Renilla Luc, Digitonin 2 hours): increase in Renilla Luc activity
Luc49-7C6A, Luc78-0B10, Luc133-IB2 and LucPpL-81-6G1 activities ([5]; K562 cells stably expressing these luciferases, Digitonin 30 μg/ml, example in present tense): increase in Luc49-7C6A, Luc78-0B10, Luc133-IB2 and LucPpL-81-6G1 activities
LucPPe-146-1H2 and NLuc luminescence ([5]; K562 co-expressing both luciferases, Digitonin 30 μg/ml, 90 minutes, Dual-Luciferase Reporter Assay System): increase in both LucPPe-146-1H2 and NLuc luminescence
LucPPe-146-1H2 and NLuc activities ([5]; K562 co-expressing both luciferases, Digitonin, measured in different wells with D-luciferin and CTZ assay buffers): increase in both LucPPe-146-1H2 and NLuc activities
